The record followed here is ChEMBL document CHEMBL1201862, “PubChem BioAssay data set” (2004).

Holding throughout (assay type): functional
Experiment [1] concerns the target T1, Neuropeptides B/W receptor type 1 (Homo sapiens, UniProt P48145).
T1 sequence (P48145 whole entry): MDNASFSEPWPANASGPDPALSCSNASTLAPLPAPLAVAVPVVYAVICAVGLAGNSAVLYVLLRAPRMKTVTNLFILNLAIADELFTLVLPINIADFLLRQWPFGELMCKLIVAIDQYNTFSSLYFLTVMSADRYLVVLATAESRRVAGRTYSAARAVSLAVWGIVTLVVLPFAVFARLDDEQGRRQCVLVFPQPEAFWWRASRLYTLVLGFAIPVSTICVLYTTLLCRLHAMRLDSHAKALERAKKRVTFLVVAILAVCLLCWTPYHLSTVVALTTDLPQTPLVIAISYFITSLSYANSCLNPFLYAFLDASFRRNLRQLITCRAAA
As to the kind of experiment: human NPBW1 receptor blockade, IC50 – cell-based, fluorescence, dose response, set 5, late-stage follow-up (AID 588566).

Experiment [2] has as its target Melanin-concentrating hormone receptor 1 (Homo sapiens, UniProt Q99705). As to the kind of experiment: Late-stage fluorescence-based counterscreen for antagonists of the G-protein coupled receptor 7 (GPR7): cell-based dose response assay to identify antagonists of the melanin-concentrating hormone receptor 1 (MCHR1) Set 5.
A short description of experiment [3]: SAR analysis of small molecule activators of Apaf-1 using a LZ-Caspase-9/Caspase-3 Fluorescent Selectivity assay - Set 2. Conditions: read-out: EC50_Mean.
Experiment [4] has as its target Apoptotic protease-activating factor 1 (Homo sapiens, UniProt O14727). The experiment can be described thus: SAR analysis of small molecule Activators of Apaf-1 in a Fluorescent assay - set 2. The settings on record: read-out: EC50_Mean.

Activity calls are given as the source filed them.

Sequence of Apoptotic protease-activating factor 1 (O14727 whole entry): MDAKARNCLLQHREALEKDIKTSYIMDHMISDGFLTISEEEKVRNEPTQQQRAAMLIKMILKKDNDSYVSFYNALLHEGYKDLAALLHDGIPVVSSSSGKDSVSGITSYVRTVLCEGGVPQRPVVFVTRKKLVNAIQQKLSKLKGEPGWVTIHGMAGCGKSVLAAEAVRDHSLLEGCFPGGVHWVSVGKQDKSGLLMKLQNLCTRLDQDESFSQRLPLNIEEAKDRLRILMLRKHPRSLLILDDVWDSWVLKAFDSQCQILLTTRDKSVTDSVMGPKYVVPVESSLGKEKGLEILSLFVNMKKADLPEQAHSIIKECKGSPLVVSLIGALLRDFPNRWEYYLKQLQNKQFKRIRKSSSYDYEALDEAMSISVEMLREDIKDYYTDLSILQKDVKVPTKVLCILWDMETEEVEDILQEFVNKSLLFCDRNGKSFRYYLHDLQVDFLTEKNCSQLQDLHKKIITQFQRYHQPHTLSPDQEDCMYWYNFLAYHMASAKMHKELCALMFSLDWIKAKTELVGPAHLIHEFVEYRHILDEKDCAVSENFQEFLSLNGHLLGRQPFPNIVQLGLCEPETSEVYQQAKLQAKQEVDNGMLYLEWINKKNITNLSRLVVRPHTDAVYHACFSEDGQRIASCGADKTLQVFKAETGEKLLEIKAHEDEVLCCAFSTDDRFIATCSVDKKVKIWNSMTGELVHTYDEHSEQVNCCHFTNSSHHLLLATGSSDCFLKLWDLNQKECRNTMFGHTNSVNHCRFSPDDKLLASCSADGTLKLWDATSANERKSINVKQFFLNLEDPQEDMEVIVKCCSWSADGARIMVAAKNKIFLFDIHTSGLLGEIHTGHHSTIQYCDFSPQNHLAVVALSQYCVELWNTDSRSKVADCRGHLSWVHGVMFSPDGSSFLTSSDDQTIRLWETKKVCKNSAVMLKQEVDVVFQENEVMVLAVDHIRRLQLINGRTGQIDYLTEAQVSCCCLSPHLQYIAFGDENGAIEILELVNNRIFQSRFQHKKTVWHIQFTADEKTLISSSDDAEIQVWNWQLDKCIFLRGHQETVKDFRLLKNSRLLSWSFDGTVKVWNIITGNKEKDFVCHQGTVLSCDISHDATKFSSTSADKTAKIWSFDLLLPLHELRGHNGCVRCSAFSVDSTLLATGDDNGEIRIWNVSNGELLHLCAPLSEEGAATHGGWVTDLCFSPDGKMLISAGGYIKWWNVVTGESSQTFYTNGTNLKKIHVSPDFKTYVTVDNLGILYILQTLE
Sequence of Melanin-concentrating hormone receptor 1 (Q99705 whole entry): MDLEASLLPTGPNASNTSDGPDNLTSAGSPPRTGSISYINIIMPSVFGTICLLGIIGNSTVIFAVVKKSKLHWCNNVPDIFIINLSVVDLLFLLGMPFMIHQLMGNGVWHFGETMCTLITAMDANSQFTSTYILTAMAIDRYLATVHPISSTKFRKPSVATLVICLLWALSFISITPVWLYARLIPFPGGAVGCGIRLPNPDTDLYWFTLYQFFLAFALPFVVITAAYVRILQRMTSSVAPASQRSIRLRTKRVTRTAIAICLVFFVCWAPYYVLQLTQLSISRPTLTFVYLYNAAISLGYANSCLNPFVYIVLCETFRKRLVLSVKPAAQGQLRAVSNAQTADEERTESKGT

In general, IC50 refers to the midpoint of a concentration-inhibition curve. Turning to `N#CC(c1ccccc1)c1cnn(Cc2cccc3ccccc23)c(=O)c1Br` (centres undefined), the IC50 in experiment [1] is ~0.227 µM (active); in experiment [2], > 20 µM (inactive).

Regarding `Cc1nc2ccccc2n1CC(C)C(=O)O` (centres undefined), the values for the EC50 in experiment [3] and in experiment [4] were > 100 µM (inactive) and 94.1 µM (active), respectively.
